According to PubChem BioAssay (NCI):
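Five compound concentrations were applied to cells in 96-well plates for 48 hours; endpoints were derived by simple linear interpolation of the resulting dose-response curve. At the TGI there is no net growth.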

Key:
Test in all cases: inhibition of tumour cell growth, NCI panel, 48 h
DMS 114 small cell lung = tested on: DMS 114 small cell lung
NCI/ADR-RES ovarian = tested on: NCI/ADR-RES ovarian
KM20L2 colon = tested on: KM20L2 colon
UACC-257 melanoma = tested on: UACC-257 melanoma
SK-MEL-2 melanoma = tested on: SK-MEL-2 melanoma
RPMI-8226 leukemia = tested on: RPMI-8226 leukemia
NCI-H23 lung = tested on: NCI-H23 lung
DLD-1 colon = tested on: DLD-1 colon
ACHN renal = tested on: ACHN renal
786-0 renal = tested on: 786-0 renal
T-47D breast = tested on: T-47D breast
PC-3 prostate = tested on: PC-3 prostate

Row | Structure (SMILES) | TGI (DMS 114 small cell lung) [µM] | TGI (NCI/ADR-RES ovarian) [µM] | TGI (KM20L2 colon) [µM] | TGI (UACC-257 melanoma) [µM] | TGI (SK-MEL-2 melanoma) [µM] | TGI (RPMI-8226 leukemia) [µM] | TGI (NCI-H23 lung) [µM] | TGI (DLD-1 colon) [µM] | TGI (ACHN renal) [µM] | TGI (786-0 renal) [µM] | TGI (T-47D breast) [µM] | TGI (PC-3 prostate) [µM]
1 | CN(C)CCNC(=O)c1cc(Cl)cc2ccc(-c3ccccc3)nc12 | 12.6 | 10.9 | 13.1 | 10.8 | 17.1 | 5.32 | 14.4 | 12.9 |  |  |  | 
2 | NCCCCNCCCNC(=O)c1nc(-c2nc(CCN)sc2Cl)sc1Cl | 52.5 |  | > 100 | > 100 |  | > 100 | > 100 | > 100 | > 100 |  |  | 
3 | Cc1cc(C)nc(NS(=O)(=O)c2ccc(Nc3c4ccccc4nc4c(C(=O)N5CCN(CCOS(C)(=O)=O)CC5)cccc34)cc2)n1 | > 100 |  | > 100 | > 100 | > 100 | > 100 | > 100 | > 100 | > 100 |  |  | 
4 | COC(=O)C1=C(C(=O)OC)SC(=CC#CC=C2SC(C(=O)OC)=C(C(=O)OC)S2)S1 | > 60.7 |  | 71.6 | > 100 | 64.3 | > 100 | 17.8 | > 54 | 34.6 | 18.2 |  | 
5 | COC(=O)Cc1ccc2c(cnn2-c2ccccc2)c1OC |  | > 10 |  | > 10 | > 10 | > 10 | > 10 |  | > 10 | > 10 | > 10 | > 10
6 | CC(C)N1CC2CC(CN(C(=O)c3ccccc3)C2)C1 | > 100 |  | > 100 | > 100 | > 100 | > 100 | > 100 |  | > 100 | > 100 |  | 
7 | N#CC1(O)CCCCCCCCCCC1 |  | > 100 |  | > 100 | > 100 | > 100 | > 100 |  | > 100 | > 100 | > 100 | > 100
8 | COc1cc(C(c2c(O)c3ccccc3oc2=O)c2c(O)c3ccccc3oc2=O)cc(Br)c1O |  | 53.1 |  | 33 | 42.5 | 80.4 | 42.7 |  | 31.2 | 37.8 | 53.3 | 35
9 | C=C(C)OCOCCOC |  | > 100 |  | > 100 | > 100 | > 100 | > 100 |  | > 100 | > 100 | > 100 | > 100
10 | COc1cccc2c1C(=O)c1c(O)c3c(c(O)c1C2=O)C[C@H](O)C[C@@H]3OC1CC(N)C(O)C(C)O1 (some centres undefined) |  | 62.3 |  | 5.15 | 5.41 | 8.8 | 3.18 |  | 3.54 | 14.2 | 15.3 | 12
11 | CC(C)c1cccc(C(C)C)c1NC(=O)/C(CC(=O)CC(c1ccccc1)c1c(O)c2ccccc2oc1=O)=N/O (centres undefined) |  | > 100 |  | > 100 | > 100 | > 100 | > 100 |  | > 100 | > 100 | > 100 | > 100
12 | COc1ccc2nc(/C(N)=C\C#N)ccc2c1 |  | > 100 |  | > 100 | > 100 | > 100 | > 100 |  | > 100 | > 100 | 76.2 | > 100
13 | CCOC(=O)C1(C#N)C(c2ccccc2)CC(O)(c2ccc(Cl)cc2)C(C(=O)c2ccc(Cl)cc2)C1c1ccccc1 (centres undefined) | > 100 |  | > 100 | > 100 | > 100 | > 100 | > 100 | > 100 | > 100 | > 100 |  | 
14 | Cc1cc(C)c(S(=O)(=O)N(CCCN)OCCCON(CCCN)S(=O)(=O)c2c(C)cc(C)cc2C)c(C)c1 |  | 36.4 |  | 3.44 | 3.29 | 6.55 | 4.66 |  | 28.9 | 5.86 | 3.36 | 3.45
15 | CS(=O)(=O)Nc1ccc2c(c1)N(S(C)(=O)=O)CC2CCl (centres undefined) |  | > 100 |  | > 100 | > 100 | > 100 | > 100 |  | > 100 | > 100 | > 100 | > 100
16 | O=C(/C=C/C(=O)N1CCCC1)N1CCCC1 |  | > 100 |  | > 100 | > 100 | > 100 | > 100 |  | > 100 | > 100 | > 100 | > 100
